Laboratory results: PMC5218480 (PLoS ONE, 2017)

System: MV-4-11 cells
Experiment: Gene expression microarray analysis (Affymetrix PrimeView) and GSEA
Format: cell-based, human
Set-up: RFU PODN (11730768_x_at) / Fold change /veh PODN (11730768_x_at) / RFU LINC00158 (11744669_a_at) / Fold change /veh LINC00158 (11744669_a_at) / RFU DUSP10 (11751237_a_at) / Fold change /veh DUSP10 (11751237_a_at) / RFU ID3 (11757404_x_at) / Fold change /veh ID3 (11757404_x_at) / RFU PLEKHG5 (11737974_s_at) / Fold change /veh PLEKHG5 (11737974_s_at) / RFU LRRC4B (11730491_at) / Fold change /veh LRRC4B (11730491_at) / RFU GIMAP4 (11747438_a_at) / Fold change /veh GIMAP4 (11747438_a_at) / RFU KRT8 (11758183_x_at) / Fold change /veh KRT8 (11758183_x_at) / RFU CNN1 (11734310_a_at) / Fold change /veh CNN1 (11734310_a_at) / RFU VPS37D (11726825_at) / Fold change /veh VPS37D (11726825_at) / RFU C10orf10 (11716522_x_at) / Fold change /veh C10orf10 (11716522_x_at) / RFU KIR2DL2 /// KIR2DL4 /// KIR2DL5A /// KIR2DL5B /// KIR2DS1 /// KIR2DS2 /// KIR2DS3 /// KIR2DS4 /// KIR3DL3 /// KIR3DL3 /// KIR3DS1 (11738374_at) / Fold change /veh KIR2DL2 /// KIR2DL4 /// KIR2DL5A /// KIR2DL5B /// KIR2DS1 /// KIR2DS2 /// KIR2DS3 /// KIR2DS4 /// KIR3DL3 /// KIR3DL3 /// KIR3DS1 (11738374_at) / RFU C1QL1 (11718748_at) / Fold change /veh C1QL1 (11718748_at) / RFU TMPRSS4 (11747572_a_at) / Fold change /veh TMPRSS4 (11747572_a_at) / RFU HAMP (11756126_x_at) / Fold change /veh HAMP (11756126_x_at) / RFU RNFT2 (11725882_a_at) / Fold change /veh RNFT2 (11725882_a_at) / RFU NR4A2 (11747474_a_at) / Fold change /veh NR4A2 (11747474_a_at) / RFU ABCC12 (11746883_a_at) / Fold change /veh ABCC12 (11746883_a_at) / RFU TMEM136 (11760407_x_at) / Fold change /veh TMEM136 (11760407_x_at) / RFU CLDN22 /// WWC2 (11732394_at) / Fold change /veh CLDN22 /// WWC2 (11732394_at) / RFU HLA-DPB1 (11760878_x_at) / Fold change /veh HLA-DPB1 (11760878_x_at) / RFU SPINT1 (11716480_a_at) / Fold change /veh SPINT1 (11716480_a_at) / RFU GAP43 (11754022_s_at) / Fold change /veh GAP43 (11754022_s_at) / RFU A4GNT (11735810_at) / Fold change /veh A4GNT (11735810_at) / RFU PRB3 (11715151_x_at) / Fold change /veh PRB3 (11715151_x_at) / RFU TUBB4B (11761932_at) / Fold change /veh TUBB4B (11761932_at) / RFU CAPN14 (11732068_a_at) / Fold change /veh CAPN14 (11732068_a_at) / RFU TMCC2 (11721928_a_at) / Fold change /veh TMCC2 (11721928_a_at) / RFU IRGQ (11745062_a_at) / Fold change /veh IRGQ (11745062_a_at) / RFU FAM174B (11720279_a_at) / Fold change /veh FAM174B (11720279_a_at) / RFU TMPRSS4 (11748680_a_at) / Fold change /veh TMPRSS4 (11748680_a_at) / RFU FAM212B (11763350_a_at) / Fold change /veh FAM212B (11763350_a_at) / RFU PLEKHG5 (11743358_a_at) / Fold change /veh PLEKHG5 (11743358_a_at) / RFU ZSCAN30 (11745921_a_at) / Fold change /veh ZSCAN30 (11745921_a_at) / RFU CMKLR1 (11741424_a_at) / Fold change /veh CMKLR1 (11741424_a_at) / RFU LOC101060620 /// MAPK8IP1 (11723275_at) / Fold change /veh LOC101060620 /// MAPK8IP1 (11723275_at) / RFU SPTSSB (11747773_x_at) / Fold change /veh SPTSSB (11747773_x_at) / RFU PRSS12 (11739890_at) / Fold change /veh PRSS12 (11739890_at) / RFU BIN1 (11741810_x_at) / Fold change /veh BIN1 (11741810_x_at) / RFU WNT11 (11732464_a_at) / Fold change /veh WNT11 (11732464_a_at) / RFU C10orf10 (11716521_a_at) / Fold change /veh C10orf10 (11716521_a_at) / RFU C5orf56 (11738089_at) / Fold change /veh C5orf56 (11738089_at) / RFU CYB561 (11721691_x_at) / Fold change /veh CYB561 (11721691_x_at) / RFU ANKRD19P (11752326_a_at) / Fold change /veh ANKRD19P (11752326_a_at) / RFU OR2T12 /// OR2T33 /// OR2T8 (11738714_s_at) / Fold change /veh OR2T12 /// OR2T33 /// OR2T8 (11738714_s_at) / RFU VCAN (11748164_a_at) / Fold change /veh VCAN (11748164_a_at) / RFU JSRP1 (11732532_at) / Fold change /veh JSRP1 (11732532_at) / RFU KRTAP10-11 (11738290_x_at) / Fold change /veh KRTAP10-11 (11738290_x_at) / RFU MYO3A (11730013_a_at) / Fold change /veh MYO3A (11730013_a_at) / RFU EBF3 (11725865_a_at) / Fold change /veh EBF3 (11725865_a_at) / RFU CAMK2N1 (11719241_x_at) / Fold change /veh CAMK2N1 (11719241_x_at) / RFU C5orf56 (11738088_a_at) / Fold change /veh C5orf56 (11738088_a_at) / RFU OLFML3 (11715873_a_at) / Fold change /veh OLFML3 (11715873_a_at) / RFU LOC100653217 /// NTM (11731650_a_at) / Fold change /veh LOC100653217 /// NTM (11731650_a_at) / RFU MAPK11 (11762145_a_at) / Fold change /veh MAPK11 (11762145_a_at) / RFU FIZ1 (11724087_x_at) / Fold change /veh FIZ1 (11724087_x_at) / RFU OASL (11726364_x_at) / Fold change /veh OASL (11726364_x_at) / RFU SOX15 (11748057_x_at) / Fold change /veh SOX15 (11748057_x_at) / RFU CD79A (11719716_a_at) / Fold change /veh CD79A (11719716_a_at) / RFU HIST1H1D (11736915_at) / Fold change /veh HIST1H1D (11736915_at) / RFU CASKIN2 (11723855_a_at) / Fold change /veh CASKIN2 (11723855_a_at) / RFU LOC730098 (11760151_x_at) / Fold change /veh LOC730098 (11760151_x_at) / RFU OR4N2 (11742367_at) / Fold change /veh OR4N2 (11742367_at) / RFU PRRT2 (11749266_a_at) / Fold change /veh PRRT2 (11749266_a_at) / RFU SNX32 (11753110_a_at) / Fold change /veh SNX32 (11753110_a_at) / RFU CDHR5 (11726645_a_at) / Fold change /veh CDHR5 (11726645_a_at) / RFU RCAN1 (11760418_a_at) / Fold change /veh RCAN1 (11760418_a_at) / RFU FAM167A (11723789_a_at) / Fold change /veh FAM167A (11723789_a_at) / RFU FAM26E (11764081_at) / Fold change /veh FAM26E (11764081_at) / RFU ISYNA1 (11749810_s_at) / Fold change /veh ISYNA1 (11749810_s_at) / RFU ACY1 (11761880_at) / Fold change /veh ACY1 (11761880_at) / RFU 11764098_at / Fold change /veh 11764098_at / RFU SAMD14 (11745864_x_at) / Fold change /veh SAMD14 (11745864_x_at) / RFU NPB (11741838_a_at) / Fold change /veh NPB (11741838_a_at) / RFU TMPRSS6 (11731388_a_at) / Fold change /veh TMPRSS6 (11731388_a_at) / RFU KRTAP10-2 (11738614_at) / Fold change /veh KRTAP10-2 (11738614_at) / RFU ARHGAP8 /// PRR5-ARHGAP8 (11727945_x_at) / Fold change /veh ARHGAP8 /// PRR5-ARHGAP8 (11727945_x_at) / RFU KRTAP5-7 /// NADSYN1 (11734609_at) / Fold change /veh KRTAP5-7 /// NADSYN1 (11734609_at) / RFU RASL12 (11751679_a_at) / Fold change /veh RASL12 (11751679_a_at) / RFU CDKN2B (11736163_a_at) / Fold change /veh CDKN2B (11736163_a_at) / RFU PRF1 (11729649_at) / Fold change /veh PRF1 (11729649_at) / RFU, ZNF638 /// ZNF638-IT1 / Fold change vs veh, ZNF638 /// ZNF638-IT1 / RFU, PANK3 / Fold change vs veh, PANK3 / RFU, SH3YL1 / Fold change vs veh, SH3YL1 / RFU, ZEB2 / Fold change vs veh, ZEB2 / RFU, NRIP1 / Fold change vs veh, NRIP1 / RFU, PTTG1IP / Fold change vs veh, PTTG1IP / RFU, CAPN2 / Fold change vs veh, CAPN2 / RFU, MED14 / Fold change vs veh, MED14 / RFU, SNORA58 / Fold change vs veh, SNORA58 / RFU, C1orf63 / Fold change vs veh, C1orf63 / RFU, LRRFIP1 / Fold change vs veh, LRRFIP1 / RFU, NDUFAF7 / Fold change vs veh, NDUFAF7 / RFU, SLC12A2 / Fold change vs veh, SLC12A2 / RFU, IBTK / Fold change vs veh, IBTK / RFU, ESF1 / Fold change vs veh, ESF1 / Fold change vs veh, TMEM50B / RFU, TAOK1 / Fold change vs veh, TAOK1 / RFU, ACBD3 / Fold change vs veh, ACBD3 / RFU, TMA16 / Fold change vs veh, TMA16 / RFU, RWDD3 / Fold change vs veh, RWDD3 / RFU, BCAT1 / Fold change vs veh, BCAT1 / RFU, EDEM3 / Fold change vs veh, EDEM3 / RFU, TMEM33 / Fold change vs veh, TMEM33 / RFU, WDR75 / Fold change vs veh, WDR75 / RFU, AHCTF1 / Fold change vs veh, AHCTF1 / RFU, TFRC / Fold change vs veh, TFRC / RFU, ZDHHC17 / Fold change vs veh, ZDHHC17 / RFU, NOM1 / Fold change vs veh, NOM1 / RFU, ARL8B / Fold change vs veh, ARL8B / RFU, ZBTB11 / Fold change vs veh, ZBTB11 / RFU, TAMM41 / Fold change vs veh, TAMM41 / RFU, KIAA1704 /// LOC100996395 / Fold change vs veh, KIAA1704 /// LOC100996395 / RFU, ING1 / Fold change vs veh, ING1 / RFU, TRMT61B / Fold change vs veh, TRMT61B / RFU, FUBP3 / Fold change vs veh, FUBP3 / RFU, TP53 / Fold change vs veh, TP53 / RFU, TNKS2 / Fold change vs veh, TNKS2 / RFU, ZFP14 / Fold change vs veh, ZFP14 / RFU, ACTR2 / Fold change vs veh, ACTR2 / RFU, PPP3R1 / Fold change vs veh, PPP3R1 / RFU, PIK3R1 / Fold change vs veh, PIK3R1 / RFU, HNRNPA1 / Fold change vs veh, HNRNPA1 / RFU, RNF170 / Fold change vs veh, RNF170 / RFU, ZNF28 / Fold change vs veh, ZNF28 / RFU, RNGTT / Fold change vs veh, RNGTT / RFU, OGT / Fold change vs veh, OGT / RFU, BRD1 / Fold change vs veh, BRD1 / RFU, MARS / Fold change vs veh, MARS / RFU, ZNF655 / Fold change vs veh, ZNF655 / RFU, FAHD1 / Fold change vs veh, FAHD1 / RFU, BDP1 / Fold change vs veh, BDP1 / RFU, LRRCC1 / Fold change vs veh, LRRCC1 / RFU, ARID1A / Fold change vs veh, ARID1A / RFU, ZNF146 / Fold change vs veh, ZNF146 / RFU, ZNF330 / Fold change vs veh, ZNF330 / RFU, GPN3 / Fold change vs veh, GPN3 / RFU, C9orf123 / Fold change vs veh, C9orf123 / RFU, N4BP2L2 / Fold change vs veh, N4BP2L2 / RFU, ARFIP1 / Fold change vs veh, ARFIP1 / RFU, FAM179B / Fold change vs veh, FAM179B / RFU, BCL10 / Fold change vs veh, BCL10 / RFU, UHRF1BP1L / Fold change vs veh, UHRF1BP1L / RFU, BET1 / Fold change vs veh, BET1 / RFU, CNOT2 / Fold change vs veh, CNOT2 / RFU, ZNF268 / Fold change vs veh, ZNF268 / Fold change vs veh, ZNF507 / RFU, DGCR2 / Fold change vs veh, DGCR2 / RFU, WDSUB1 / Fold change vs veh, WDSUB1 / Fold change vs veh, HSP90B1 /// MIR3652 / RFU, ADSS / Fold change vs veh, ADSS / RFU, GK / Fold change vs veh, GK / RFU, ZNF148 / Fold change vs veh, ZNF148 / RFU, TAF9 / Fold change vs veh, TAF9 / RFU, SLC1A5 / Fold change vs veh, SLC1A5 / RFU, SLMO2 / Fold change vs veh, SLMO2 / RFU, ABCC4 / Fold change vs veh, ABCC4 / RFU, LOC101060439 /// RAP1B / Fold change vs veh, LOC101060439 /// RAP1B / RFU, RFX7 / Fold change vs veh, RFX7 / RFU, GTPBP10 / Fold change vs veh, GTPBP10 / RFU, CNEP1R1 / Fold change vs veh, CNEP1R1 / RFU, BIVM-ERCC5 /// ERCC5 / Fold change vs veh, BIVM-ERCC5 /// ERCC5 / RFU, ILF3 / Fold change vs veh, ILF3 / RFU 11762660_at / Fold change /veh 11762660_at / RFU VCAN (11757783_s_at) / Fold change /veh VCAN (11757783_s_at) / RFU DDX43 (11728927_at) / Fold change /veh DDX43 (11728927_at) / RFU KRT8 (11758188_x_at) / Fold change /veh KRT8 (11758188_x_at) / RFU NKD1 (11759106_at) / Fold change /veh NKD1 (11759106_at) / RFU SRD5A1 (11742802_a_at) / Fold change /veh SRD5A1 (11742802_a_at) / RFU TPSAB1 /// TPSB2 (11721975_s_at) / Fold change /veh TPSAB1 /// TPSB2 (11721975_s_at) / RFU GSTM3 (11746129_a_at) / Fold change /veh GSTM3 (11746129_a_at) / RFU IL23R (11737362_x_at) / Fold change /veh IL23R (11737362_x_at) / RFU TMEM51 (11727254_a_at) / Fold change /veh TMEM51 (11727254_a_at) / RFU PIWIL2 (11732686_x_at) / Fold change /veh PIWIL2 (11732686_x_at) / RFU ORM1 (11744905_x_at) / Fold change /veh ORM1 (11744905_x_at) / RFU CCDC152 (11743942_at) / Fold change /veh CCDC152 (11743942_at) / RFU ECM1 (11717891_a_at) / Fold change /veh ECM1 (11717891_a_at) / RFU IL23R (11748794_a_at) / Fold change /veh IL23R (11748794_a_at) / RFU TNFAIP8L3 (11732012_x_at) / Fold change /veh TNFAIP8L3 (11732012_x_at) / RFU MBOAT4 (11741988_at) / Fold change /veh MBOAT4 (11741988_at) / RFU 11764193_at / Fold change /veh 11764193_at / RFU TMEM53 (11763286_at) / Fold change /veh TMEM53 (11763286_at) / RFU MAGEB2 (11727129_at) / Fold change /veh MAGEB2 (11727129_at) / RFU TMEM200A (11744735_a_at) / Fold change /veh TMEM200A (11744735_a_at) / RFU CCDC152 (11751479_a_at) / Fold change /veh CCDC152 (11751479_a_at) / RFU FAM211A (11726209_a_at) / Fold change /veh FAM211A (11726209_a_at) / RFU RGS16 (11746705_a_at) / Fold change /veh RGS16 (11746705_a_at) / RFU VCAN (11755009_s_at) / Fold change /veh VCAN (11755009_s_at) / RFU RHOB (11743442_s_at) / Fold change /veh RHOB (11743442_s_at) / RFU RGS16 (11720943_a_at) / Fold change /veh RGS16 (11720943_a_at) / RFU RGS16 (11720944_at) / Fold change /veh RGS16 (11720944_at) / RFU, VPS4B / Fold change vs veh, VPS4B / RFU, CREB1 / Fold change vs veh, CREB1 / RFU, DNAJC13 / Fold change vs veh, DNAJC13 / RFU, GNAQ / Fold change vs veh, GNAQ / RFU, CDK5R1 / Fold change vs veh, CDK5R1 / RFU, ZRANB3 / Fold change vs veh, ZRANB3 / RFU, CUL4A / Fold change vs veh, CUL4A / RFU, CCNY / Fold change vs veh, CCNY / RFU, UFL1 / Fold change vs veh, UFL1 / RFU, COG3 / Fold change vs veh, COG3 / RFU, DIAPH2 / Fold change vs veh, DIAPH2 / RFU, SKA2 / Fold change vs veh, SKA2 / RFU, AFF3 / Fold change vs veh, AFF3 / RFU, LMF1 / Fold change vs veh, LMF1 / RFU, IPO11 / Fold change vs veh, IPO11 / RFU, DFFB / Fold change vs veh, DFFB / RFU, FOXP1 / Fold change vs veh, FOXP1 / RFU, CARD8 / Fold change vs veh, CARD8 / RFU, STRN3 / Fold change vs veh, STRN3 / RFU, ADK / Fold change vs veh, ADK / RFU, RASSF2 / Fold change vs veh, RASSF2 / RFU, WIPF1 / Fold change vs veh, WIPF1 / RFU, LARP1B / Fold change vs veh, LARP1B / RFU, RASA1 / Fold change vs veh, RASA1 / RFU, RB1 / Fold change vs veh, RB1 / RFU, PPFIA1 / Fold change vs veh, PPFIA1 / RFU, MAT2A / Fold change vs veh, MAT2A / RFU, CCT5 / Fold change vs veh, CCT5 / RFU, WDR92 / Fold change vs veh, WDR92 / RFU, CUX1 / Fold change vs veh, CUX1 / RFU, TTC7A / Fold change vs veh, TTC7A / RFU, TMEM135 / Fold change vs veh, TMEM135 / RFU, DEPTOR / Fold change vs veh, DEPTOR / RFU, CPM / Fold change vs veh, CPM / RFU, DNAJB6 / Fold change vs veh, DNAJB6 / RFU, CACNA2D3 / Fold change vs veh, CACNA2D3 / RFU, DTX4 / Fold change vs veh, DTX4 / RFU, TFCP2 / Fold change vs veh, TFCP2 / RFU, GMCL1 /// GMCL1P1 / Fold change vs veh, GMCL1 /// GMCL1P1 / RFU, AEBP2 / Fold change vs veh, AEBP2 / RFU, SNHG1 /// SNORD22 /// SNORD25 /// SNORD26 /// SNORD27 /// SNORD28 /// SNORD29 /// SNORD31 / Fold change vs veh, SNHG1 /// SNORD22 /// SNORD25 /// SNORD26 /// SNORD27 /// SNORD28 /// SNORD29 /// SNORD31 / Fold change (Aza/veh), C12orf56 (ProbeSet 11735607_a_at) / Fold change (ACY-1035/veh), C12orf56 (ProbeSet 11735607_a_at) / Fold change (Aza/veh), FGFR1OP (ProbeSet 11751329_s_at) / Fold change (ACY-1035/veh), FGFR1OP (ProbeSet 11751329_s_at) / Fold change (Aza/veh), VPS36 (ProbeSet 11739960_a_at) / Fold change (ACY-1035/veh), VPS36 (ProbeSet 11739960_a_at) / RFU SYPL1 (11715823_x_at) / Fold change /veh SYPL1 (11715823_x_at) / RFU IGFBP7 (11715501_s_at) / Fold change /veh IGFBP7 (11715501_s_at) / RFU REEP3 (11722064_at) / Fold change /veh REEP3 (11722064_at) / RFU IGLL1 (11728026_x_at) / Fold change /veh IGLL1 (11728026_x_at): dose or concentration left out as unconfirmed
Settings: MV-4-11 cells, 48 hours

Nc1ccc(-c2cccs2)cc1NC(=O)c1ccc2c(c1)cc(C1CC1)n2CCN1CCOCC1 [ACY-1035]
Fold change /veh RCAN1 (11760418_a_at): 1.01
